Earlier results on five compounds are cited in patent US20170360829A1, “TREATMENT OF VASCULAR ANOMALIES” (GILLIES MCINDOE RESEARCH INSTITUTE, priority 2016, published 2017).

In one data set the test system is venous malformation (VM). Particulars: treatment of VM; review by van der Vleuten et al. (ref. 14).
In data set [1] the test system is several tumoral cell lines.

Consider bleomycin, for which the “effective in % of cases” value in the data set with venous malformation (VM) is given as 88%.

In the case of [Pt(dmba)(aza-N1)(dmso)] complex 1, the “IC50 relative to cisplatin” value in data set [1] is “lower IC50 than cisplatin”.

`CCO` [ethanol]: in the data set with venous malformation (VM), the “effective in % of cases” value is on record as 74%.

`CCCCCCCCCCCCCCOS(=O)(=O)[O-].[Na+]` [sodium tetradecyl sulfate]: the “effective in % of cases” value with venous malformation (VM) is given as 86%.

As to polidocanol, in the data set on venous malformation (VM), the “effective in % of cases” value is given as 82%.
